Data set [1] addresses T1, choline/ethanolamine phosphotransferase (CEPT) (Plasmodium falciparum, UniProt C6KTB9).
T1 sequence (C6KTB9 1-391): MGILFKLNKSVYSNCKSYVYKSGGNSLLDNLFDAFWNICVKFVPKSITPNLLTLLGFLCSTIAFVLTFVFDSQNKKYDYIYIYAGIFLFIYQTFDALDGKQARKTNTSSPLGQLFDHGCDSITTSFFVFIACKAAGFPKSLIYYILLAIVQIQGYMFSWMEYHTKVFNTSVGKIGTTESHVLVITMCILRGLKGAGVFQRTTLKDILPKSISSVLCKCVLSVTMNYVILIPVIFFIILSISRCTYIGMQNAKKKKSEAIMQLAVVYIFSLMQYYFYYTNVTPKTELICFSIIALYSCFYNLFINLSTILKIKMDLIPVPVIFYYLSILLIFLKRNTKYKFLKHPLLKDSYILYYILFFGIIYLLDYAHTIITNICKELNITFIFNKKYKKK

The subject of another data set is human plasma-proteins. Particulars: at 20 ng·mL^−1; no saturation until 5000 ng·mL^−1; ref unpublished observations; cited from earlier work.
Data set [2] deals with erythrocyte choline carrier. Kind of data set: Carrier-mediated choline entry into IRBC in the presence of 150 µM furosemide. Type of data set: cell-based, human.
For data set [3], the target named is CTP:phosphocholine cytidylyltransferase (CCT) (Plasmodium falciparum, UniProt Q8IEE9). The data set is described as follows: CCT assay. Type of data set: biochemical.
Chain of CTP:phosphocholine cytidylyltransferase (CCT) (Q8IEE9 1-896): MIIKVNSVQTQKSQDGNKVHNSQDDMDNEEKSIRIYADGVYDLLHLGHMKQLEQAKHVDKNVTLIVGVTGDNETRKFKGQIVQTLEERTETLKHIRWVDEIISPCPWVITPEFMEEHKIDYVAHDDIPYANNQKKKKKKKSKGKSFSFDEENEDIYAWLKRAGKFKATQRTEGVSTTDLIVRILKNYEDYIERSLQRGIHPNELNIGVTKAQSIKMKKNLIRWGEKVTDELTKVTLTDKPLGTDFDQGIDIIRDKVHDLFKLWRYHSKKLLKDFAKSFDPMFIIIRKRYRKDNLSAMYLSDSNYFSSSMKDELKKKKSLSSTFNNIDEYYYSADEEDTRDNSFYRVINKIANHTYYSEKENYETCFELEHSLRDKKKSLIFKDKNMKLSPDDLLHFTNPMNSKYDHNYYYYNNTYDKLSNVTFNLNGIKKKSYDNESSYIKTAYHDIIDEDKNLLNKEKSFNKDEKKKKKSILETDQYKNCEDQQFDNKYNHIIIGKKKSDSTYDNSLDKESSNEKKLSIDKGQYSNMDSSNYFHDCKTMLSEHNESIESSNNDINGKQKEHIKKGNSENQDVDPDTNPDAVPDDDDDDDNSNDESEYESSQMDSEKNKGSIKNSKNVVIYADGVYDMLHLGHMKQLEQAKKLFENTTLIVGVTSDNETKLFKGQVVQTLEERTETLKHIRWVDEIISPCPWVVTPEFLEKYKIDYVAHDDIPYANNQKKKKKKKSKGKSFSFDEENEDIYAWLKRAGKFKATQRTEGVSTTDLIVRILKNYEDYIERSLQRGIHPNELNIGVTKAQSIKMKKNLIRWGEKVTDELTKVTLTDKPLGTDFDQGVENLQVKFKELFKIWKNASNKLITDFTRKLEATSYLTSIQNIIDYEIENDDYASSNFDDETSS
Another data set has as its system normal erythrocytes. The data set is described as follows: Albitiazolium entry into normal erythrocytes. Particulars: 30 µM albitiazolium, 8 min, 37°C. In kind it is cell-based, human.
Data set [4] concerns NA biosynthesis in P. falciparum-infected erythrocytes. Kind of data set: Effect on [3H]-hypoxanthine incorporation into nucleic acids. Particulars: for IC50: Plasmodium falciparum, Erythrocyte. Type of data set: cell-based.
The test system of data set [5] is PE biosynthesis in P. falciparum-infected erythrocytes. Kind of data set: Effect on [3H]-ethanolamine incorporation into PL. Type of data set: cell-based. Particulars: for IC50: read-out: PE50.
Data set [6] has as its target T2, choline kinase (CK) (Plasmodium falciparum, UniProt Q8IM71).
T2 sequence (Q8IM71 1-440): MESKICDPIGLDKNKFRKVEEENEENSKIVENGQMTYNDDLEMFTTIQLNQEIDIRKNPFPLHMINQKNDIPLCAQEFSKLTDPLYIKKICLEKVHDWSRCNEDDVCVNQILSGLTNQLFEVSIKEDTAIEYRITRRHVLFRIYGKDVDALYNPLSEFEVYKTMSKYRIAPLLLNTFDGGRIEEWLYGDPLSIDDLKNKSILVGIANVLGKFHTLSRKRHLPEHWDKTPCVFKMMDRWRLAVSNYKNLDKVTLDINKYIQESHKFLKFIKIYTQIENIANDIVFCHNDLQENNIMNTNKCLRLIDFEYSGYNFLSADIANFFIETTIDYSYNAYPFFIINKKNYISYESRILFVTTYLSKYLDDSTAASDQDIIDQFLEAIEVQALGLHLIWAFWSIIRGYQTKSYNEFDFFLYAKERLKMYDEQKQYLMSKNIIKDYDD
The data set is described as follows: biochemical.

In data set [7] the target is T1, choline/ethanolamine phosphotransferase (CEPT). The data set is described as follows: biochemical. The settings on record: 0.5 h, read-out: Concentration for complete inhibition.
In data set [8] the test system is furosemide-sensitive NPP of P. falciparum IRBC. Kind of data set: Albitiazolium entry into P. falciparum-infected erythrocytes. Type of data set: cell-based.
Data set [9] has as its system parasite choline transporter (poly-specific cation transporter). The data set is described as follows: Choline entry into isolated. Type of data set: cell-based, P. falciparum.
Data set [10] relates to P. falciparum-infected erythrocytes. Kind of data set: Total choline entry into P. falciparum-infected erythrocytes. Type of data set: cell-based. The settings on record: no furosemide.
The next data set concerns P. falciparum-IRBC. Particulars: ref Wein et al., cited from earlier work.
In data set [11] the test system is P. falciparum asexual blood stages. Particulars: ref Vial et al., 2004; cited from earlier work.
The next data set relates to P. falciparum 3D7 strain. Type of data set: cell-based.
The test system of data set [12] is parasite poly-specific cation carrier. Particulars: for Type of inhibition: inhibition of albitiazolium entry.
Data set [13] deals with T2, choline kinase (CK).
Data set [14] concerns erythrocyte choline carrier. The settings on record: normal erythrocytes, 37°C.
Substrate in data set [15]: C[N+](C)(C)CCO
Kind of data set: cells, lysate or membranes named. Particulars: other: CK; saturating ATP; pH 7.9.

These results are taken from publication PMC3437492 (British Journal of Pharmacology, 2012).

Where “and” joins values, the source holds several entries; their conditions need not be identical. Equal values may be shown once. Read-outs that look alike come from different tables or passages of the source.

As usually defined, the Ki is the dissociation constant of the complex between target and ligand, obtained from inhibition or displacement. As usually defined, the Km is the concentration of substrate that gives half-maximal velocity.

On to `C[N+](C)(C)CCOP(=O)(O)OP(=O)([O-])OC[C@H]1O[C@@H](n2ccc(N)nc2=O)[C@H](O)[C@@H]1O` [CDP–choline], for which, in data set [1], the Vmax was 17.0 ± 1.5 pmol per 10^7 IRBC·min^−1.

Regarding `Cc1c(CCO)sc[n+]1CCCCCCCCCCCC[n+]1csc(CCO)c1C.[Br-].[Br-]` [albitiazolium, 3,3′-(dodecane-1,12-diyl)bis[5-(2-hydroxyethyl)-4-methyl-1,3-thiazol-3-ium] dibromide], in the data set with human plasma-proteins, the “Binding to human plasma-proteins” value is 33%. Further, the “Concentration for complete inhibition of choline entry” value was 12 µM in [2] (15 µM choline, 150 µM furosemide); 10 µM in [9] (15 µM choline); greater than 36 µM in [10] (15 µM choline, not reached). Moreover, the Type of inhibition result was “competitive inhibition” in data set [2] (150 µM furosemide) and “Competitive” in data set [9] (inhibition of choline entry). For the same molecule, the Ki in [2] (read-out: Ki on choline entry, 150 µM furosemide, Lineweaver–Burk) came to 3.1 µM; in data set [9] (read-out: Ki on choline entry into parasites, Lineweaver–Burk), 0.53 µM. In addition, the IC100 in data set [3] (0.5 h, read-out: Concentration for complete inhibition) was 100000 µM; in [7], 100000 µM. The Albitiazolium entry rate entry in the data set on normal erythrocytes is “lower than 0.01 pmol per 10^7 RBC·min^−1”. The IC50 in data set [4] (3 h, read-out: NA50, ring stage, [3H]-hypoxanthine, 3 h) was 240 µM; in [4] (3 h, read-out: NA50, schizont stage, [3H]-hypoxanthine, 3 h), 160 µM; in data set [4] (3 h, read-out: NA50, trophozoite stage, [3H]-hypoxanthine, 3 h), 340 µM; in data set [4] (read-out: NA50, range over the three stages) it was 160 to 340 µM; in data set [5] (Plasmodium falciparum, Erythrocyte, 3 h) it was greater than 1000 µM; in data set [5] (Plasmodium falciparum, Erythrocyte), greater than 1000 µM. The IC50 is greater than 1000 µM in data set [5] (schizont stage, 2 µM [3H]-ethanolamine, 3 h); greater than 1000 µM in data set [5] (trophozoite stage, 2 µM [3H]-ethanolamine, 3 h); 1500 µM at choline kinase (CK) [6]; 2.3 ± 0.2 µM in [9] (read-out: IC50 on choline entry into parasites, 15 µM choline, 10 min). In addition, the “Concentrations affecting NA biosynthesis relative to PC50 values” in [4] (higher than the PC50, three stages) was 13- to 80 fold. The “Effect on ethanolamine incorporation” value in data set [5] (up to 10 µM) is recorded as “no significant effect”. In addition, the “Vmax of albitiazolium entry” value was 47.9 ± 4.9 pmol per 10^7 IRBC·min^−1 in data set [8] (8 min, 37°C); 6.1 ± 1.1 pmol per 10^7 cells·min^−1 in data set [12] (free parasites (Table 2)); 6.1 ± 1.1 pmol per 10^7 parasites·min^−1 in [12] (isolated parasites, 10 min, 37°C). Besides, in data set [8] (read-out: apparent Km of albitiazolium entry, 8 min, 37°C), the Km was determined as 20.6 ± 4.3 µM. The “Concentration from which choline entry is significantly inhibited” value in [10] (15 µM choline) was determined as 4 µM. The “Accumulation in P. falciparum-IRBC” value with P. falciparum-IRBC (external concentration of 100 nM, unpublished observations) was 400 fold. Besides, the “cellular accumulation ratio (CAR)” value in the data set with P. falciparum-IRBC (infected erythrocytes at mature stages, in preparation) is roughly 400. In addition, in [11], the “Concentration effective at treating malaria in vitro” value is on record as roughly 10 nM. Further, in the data set on P. falciparum 3D7 strain (combination with choline), the “Type of interaction with choline” value was “highly antagonized”. In addition, the “Type of interaction with ethanolamine” value with P. falciparum 3D7 strain (combination with ethanolamine) was “additive effect”. The “Type of interaction with serine” value with P. falciparum 3D7 strain (combination with serine) is “additive effect”. Also, the “Decrease of antimalarial activity” value in the data set with P. falciparum 3D7 strain (in the presence of 6 mM choline) came out at 28 fold. Moreover, the “Concentration for complete inhibition” value at choline kinase (CK) [13] came to 100 mM.

With `C[N+](C)(C)CCO` [choline], the “Vmax of choline entry” value in data set [2] (IRBC with 150 µM furosemide) is 0.69 ± 0.23 pmol per 10^7 IRBC·min^−1 and 0.7 ± 0.2 pmol per 10^7 IRBC·min^−1; in data set [14], 0.43 ± 0.05 pmol per 10^7 RBC·min^−1; in data set [9] (free parasites (Table 2)), 23.3 ± 4.5 pmol per 10^7 cells·min^−1. In addition, the Michaelis-Menten constant (Km) in data set [2] (read-out: Km of choline entry, IRBC with 150 µM furosemide) is 11 ± 2.4 µM; in [14] (read-out: Km of choline entry, n= 4), 12.2 ± 2.2 µM; in [9] (read-out: Km of choline entry, saponin-freed parasites, 10 min, 37°C) it was 18.5 ± 3.3 µM. The “Vmax of parasite choline entry” value in [9] (Table 3) turned out to be 23.3 ± 4.5 pmol per 10^7 IRBC·min^−1. In data set [10] (external concentration of 80 µM choline), this molecule yielded a Choline uptake rate of 1.5 pmol per 10^7 IRBC·min^−1. Besides, the Type of inhibition entry was “competitive inhibition” in data set [12] and “Competitive” in [12] (listed as Choline). In [12] (read-out: Ki on albitiazolium entry into parasites, Lineweaver–Burk), the Ki is 321 µM. Moreover, at choline kinase (CK) [13], the Vmax was determined as 63.3 ± 11.6 pmol per 10^7 IRBC·min^−1.

Regarding `N=C(N)c1ccc(OCCCCCOc2ccc(C(=N)N)cc2)cc1` [pentamidine, reference compound], the “Effect on NA and PC synthesis” value in [4] (same conditions as albitiazolium, data not shown) was “affected primarily NA synthesis and not PC synthesis”.

Take `C[N+](C)(C)CCOP(=O)(O)O` [phosphocholine]: the Vmax in [3] (CCT) was 5.2 ± 1.4 pmol per 10^7 IRBC·min^−1. In data set [3] (read-out: Km for choline-containing substrate, CCT, saturating CTP), the Km was 511 ± 24.8 µM.

B1: choline kinase (CK) (Plasmodium falciparum 3D7) (protein)
chain: MESKICDPIGLDKNKFRKVEEENEENSKIVENGQMTYNDDLEMFTTIQLNQEIDIRKNPFPLHMINQKNDIPLCAQEFSKLTDPLYIKKICLEKVHDWSRCNEDDVCVNQILSGLTNQLFEVSIKEDTAIEYRITRRHVLFRIYGKDVDALYNPLSEFEVYKTMSKYRIAPLLLNTFDGGRIEEWLYGDPLSIDDLKNKSILVGIANVLGKFHTLSRKRHLPEHWDKTPCVFKMMDRWRLAVSNYKNLDKVTLDINKYIQESHKFLKFIKIYTQIENIANDIVFCHNDLQENNIMNTNKCLRLIDFEYSGYNFLSADIANFFIETTIDYSYNAYPFFIINKKNYISYESRILFVTTYLSKYLDDSTAASDQDIIDQFLEAIEVQALGLHLIWAFWSIIRGYQTKSYNEFDFFLYAKERLKMYDEQKQYLMSKNIIKDYDD
As to B1, the Km in [15] came out at 31.2 ± 4.1 µM.
